The source of these data is patent EP4428121A1, “MODULATORS OF SORTILIN ACTIVITY” (Vesper Bio Aps, priority 2023, dated 2024).

A word on the IC50: it is the concentration that inhibits the measured activity by half. A higher IC50 goes with a need for much substance. What is called Kd is the concentration at which binding is half-saturated.

The target of one experiment is T1, h-Sortilin (Homo sapiens, UniProt Q99523).
T1 sequence (Q99523 78-831): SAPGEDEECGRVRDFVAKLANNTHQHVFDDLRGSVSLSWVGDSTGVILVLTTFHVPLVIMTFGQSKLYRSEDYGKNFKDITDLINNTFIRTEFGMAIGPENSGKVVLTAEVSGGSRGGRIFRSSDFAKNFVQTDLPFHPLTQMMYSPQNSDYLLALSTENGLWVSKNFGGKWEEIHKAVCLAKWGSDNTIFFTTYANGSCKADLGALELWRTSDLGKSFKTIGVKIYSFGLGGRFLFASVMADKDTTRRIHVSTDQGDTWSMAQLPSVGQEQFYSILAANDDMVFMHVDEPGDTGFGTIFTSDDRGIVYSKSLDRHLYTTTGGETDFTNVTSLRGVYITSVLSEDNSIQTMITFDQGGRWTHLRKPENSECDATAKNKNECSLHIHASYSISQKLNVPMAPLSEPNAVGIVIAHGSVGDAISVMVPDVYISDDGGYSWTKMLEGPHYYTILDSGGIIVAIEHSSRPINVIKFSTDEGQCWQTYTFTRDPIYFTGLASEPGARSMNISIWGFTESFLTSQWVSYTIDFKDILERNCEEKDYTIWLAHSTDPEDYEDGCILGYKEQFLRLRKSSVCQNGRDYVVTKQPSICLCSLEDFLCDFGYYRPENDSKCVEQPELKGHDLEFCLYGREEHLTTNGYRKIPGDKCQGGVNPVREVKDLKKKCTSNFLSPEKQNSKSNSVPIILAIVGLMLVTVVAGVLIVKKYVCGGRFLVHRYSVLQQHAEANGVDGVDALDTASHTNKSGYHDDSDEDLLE
In words: Neurotensin scintillation proximity assay (SPA). The note with it: displacement of [3H]-neurotensin binding to h-Sortilin; 150 nM 6his-Sortilin, 5 nM [3H]-Neurotensin; average of at least 2 determinations. Here is the method:
NTS, which is a 13 amino acid neuropeptide, is a sortilin ligand.
Compound affinity was determined by measuring the displacement of [^3H]-neurotensin binding to h-Sortilin in SPA format. Total volume of 40 µl in 50 mM HEPES pH 7.4 assay buffer containing 100 mM NaCl, 2.0 mM CaCl2, 0.1% BSA and 0.1% Tween-20. Compound pre-incubation for 30 minutes at room temperature with 150 nM of 6his-Sortilin before 5 nM [3H]-Neurotensin and Ni chelate imaging beads (Perkin Elmer) were added, after 6 hours the plate was read on a ViewLux with 360 s exposure time. Dose-response evaluation of compounds was performed with 8 concentrations of drugs (covering 3 decades). IC50 values were calculated by nonlinear regression using the sigmoid concentration-response (variable slope) using CDD Vault software. All values reported are average of at least 2 determinations.
(In general: SPA uses beads or plates that emit light when radiolabelled molecules are held near them.)

For another experiment, the target named is T2, Human (6-His)Sortilin (Homo sapiens, UniProt Q99523).
T2 construct: purchased RnD Systems
T2 sequence (Q99523 78-755 limits assumed): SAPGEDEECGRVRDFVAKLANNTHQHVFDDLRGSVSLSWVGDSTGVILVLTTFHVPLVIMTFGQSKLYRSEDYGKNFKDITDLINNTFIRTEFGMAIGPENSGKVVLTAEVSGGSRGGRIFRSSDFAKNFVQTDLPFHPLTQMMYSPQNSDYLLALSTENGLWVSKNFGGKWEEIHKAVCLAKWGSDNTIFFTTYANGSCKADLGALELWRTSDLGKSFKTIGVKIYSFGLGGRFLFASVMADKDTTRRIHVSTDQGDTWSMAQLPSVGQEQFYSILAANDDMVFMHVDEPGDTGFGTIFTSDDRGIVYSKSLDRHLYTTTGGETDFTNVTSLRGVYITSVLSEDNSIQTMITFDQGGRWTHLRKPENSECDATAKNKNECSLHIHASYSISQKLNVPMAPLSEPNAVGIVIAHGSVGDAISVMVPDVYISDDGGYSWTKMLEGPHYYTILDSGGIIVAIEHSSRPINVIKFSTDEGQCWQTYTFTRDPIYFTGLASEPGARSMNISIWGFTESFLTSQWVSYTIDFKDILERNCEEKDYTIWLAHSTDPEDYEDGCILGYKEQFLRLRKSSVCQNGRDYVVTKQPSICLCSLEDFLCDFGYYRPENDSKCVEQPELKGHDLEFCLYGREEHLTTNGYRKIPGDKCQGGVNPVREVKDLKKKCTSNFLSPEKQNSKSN
Nature of the experiment: Human Sortilin GCI (Grating-Coupled Interferometry) binding assay. The settings on record: Creoptix WAVE-RAPID, single concentration (usually 1 µM, 10 µM or 100 µM), immobilised Human (6-His)Sortilin, 1:1 kinetic binding model.

On to `CC(C)(C)CCC(Nc1ccccn1)c1nn[nH]n1` (racemic) [Example 68, N-2-pyridyl[4,4-dimethyl-1-(2H-tetraazol-5-yl)pentyl]amine], for which the IC50 at h-Sortilin turned out to be 10 µM. The Kd at Human (6-His)Sortilin was 7.57 µM.

On h-Sortilin, `CC(C)(C)CCC(Nc1cccnc1)c1nn[nH]n1` (racemic) [Example 69, N-3-pyridyl[4,4-dimethyl-1-(2H-tetraazol-5-yl)pentyl]amine] had an IC50 of 10 µM. On Human (6-His)Sortilin, this compound gave a Kd of 1.8 µM.

Turning to `CC(C)(C)CC[C@H](Nc1ccccn1)C(=O)O` [Example 2, (S)-5,5-dimethyl-2-(2-pyridylamino)hexanoic acid], the IC50 on h-Sortilin is 2.2 µM. In addition, at Human (6-His)Sortilin, the Kd was found to be 2.23 µM.

`CC(C)(C)CC[C@H](Nc1cnccn1)C(=O)O` [Example 4, (S)-5,5-dimethyl-2-(2-pyrazinylamino)hexanoic acid] showed an IC50 on h-Sortilin of 1.07 µM. This compound also gave a Kd at Human (6-His)Sortilin of 5.57 µM.

On h-Sortilin, `CC(C)(C)CC[C@H](Nc1ncccn1)C(=O)O` [Example 5, (S)-5,5-dimethyl-2-(2-pyrimidinylamino)hexanoic acid] returned an IC50 of 1.19 µM. The compound further gave a Kd at Human (6-His)Sortilin of 13.2 µM.

At h-Sortilin, `CC(C)(C)CC[C@H](Nc1cncnc1)C(=O)O` [Example 6, (S)-5,5-dimethyl-2-(5-pyrimidinylamino)hexanoic acid] had an IC50 of 1.24 µM. This compound returned a Kd on Human (6-His)Sortilin of 4.05 µM.

`CC(C)(C)CC[C@H](Nc1ccncn1)C(=O)O` [Example 7, (S)-5,5-dimethyl-2-(4-pyrimidinylamino)hexanoic acid] returned an IC50 at h-Sortilin of 1.14 µM. The Kd at Human (6-His)Sortilin stood at 8.28 µM.

In turn, `CC(C)(C)CC[C@H](Nc1ncnc2ccccc12)C(=O)O` [Example 8, (S)-5,5-dimethyl-2-(4-quinazolinylamino)hexanoic acid] came in with an IC50 at h-Sortilin of 0.325 µM. The compound also registered a Kd on Human (6-His)Sortilin of 0.116 µM.

Turning to `Cc1nccc(N[C@@H](CCC(C)(C)C)C(=O)O)n1` [Example 23, (S)-5,5-dimethyl-2-(2-methyl-4-pyrimidinylamino)hexanoic acid], the IC50 at h-Sortilin is 1.31 µM. The Kd on Human (6-His)Sortilin worked out at 0.108 µM.

Turning to `Cc1cc(N[C@@H](CCC(C)(C)C)C(=O)O)ncn1` [Example 24, (S)-5,5-dimethyl-2-(6-methyl-4-pyrimidinylamino)hexanoic acid], the IC50 on h-Sortilin came to 2.87 µM. The compound also had a Kd at Human (6-His)Sortilin of 0.429 µM.

As for `Cc1cc(N[C@@H](CCC(C)(C)C)C(=O)O)nc(C)n1` [Example 25, (S)-2-(2,6-dimethyl-4-pyrimidinylamino)-5,5-dimethylhexanoic acid], on h-Sortilin, the IC50 stood at 1.56 µM. This compound yielded a Kd on Human (6-His)Sortilin of 0.499 µM.

`Cc1cccc2c(N[C@@H](CCC(C)(C)C)C(=O)O)ncnc12` [Example 26, (S)-5,5-dimethyl-2-(8-methyl-4-quinazolinylamino)hexanoic acid] gave an IC50 at h-Sortilin of 1.83 µM. This compound also came in with a Kd at Human (6-His)Sortilin of 0.0541 µM.

Turning to `Cc1cncc(N[C@@H](CCC(C)(C)C)C(=O)O)n1` [Example 27, (S)-5,5-dimethyl-2-(6-methyl-2-pyrazinylamino)hexanoic acid], on h-Sortilin, the IC50 came to 0.51 µM. This compound gave a Kd on Human (6-His)Sortilin of 0.664 µM.

In turn, `CC(C)(C)CC[C@H](Nc1cncc(Oc2ccccc2)n1)C(=O)O` [Example 28, (S)-5,5-dimethyl-2-(6-phenoxy-2-pyrazinylamino)hexanoic acid] yielded an IC50 on h-Sortilin of 0.67 µM. The same compound gave a dissociation constant (Kd) on Human (6-His)Sortilin of 0.525 µM.

Consider `CC(C)(C)CC[C@H](Nc1cccnc1)C(=O)O` [Example 31, (S)-5,5-dimethyl-2-(3-pyridylamino)hexanoic acid], for which, on h-Sortilin, the IC50 was 1.81 µM. This compound also returned a Kd on Human (6-His)Sortilin of 1.71 µM.
